Columns and labels:
Format in all cases: in vivo
[1] = system: diamondback moth (Plutella xylostella); experiment: Insecticidal effect on diamondback moth (Test Example 1); settings: for Insecticidal effect, Test Example 1 / Insecticidal effect (Test Example 1), judged from mortality: diamondback moth; for Insecticidal effect (Test Example 1), judged from mortality: judged by the criterion of Test Example 1
How it was run: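 Oviposition by adults on Chinese cabbage seedling; immersion; air-dry; 25° C room. Count of hatched larvae at day 6 post-immersion → mortality → effect graded by criterion. Triplicate, 10 insects/group.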

[2] = system: common cutworm (Spodoptera Litura); experiment: Insecticidal effect on common cutworm (Test Example 2); settings: 500 ppm, 25° C.; for Insecticidal effect, Test Example 2: cabbage leaf immersed; for Insecticidal effect (Test Example 2), judged from mortality: 8 days after inoculation
How it was run: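 Mortality is the read-out: larvae are counted as dead or alive on day 8 and the percentage is graded by an effect criterion. Second-instar larvae are kept with the air-dried treated material in a sealed dish at 25° C, in triplicate groups of ten.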

[3] = system: rice leafroller (Cnaphalocrocis medinalis); experiment: Insecticidal effect on rice leafroller (Test Example 3); settings: 500 ppm, 25° C., humidity 70%; for Insecticidal effect, Test Example 3: rice lamina immersed; for Insecticidal effect (Test Example 3), judged from mortality: 4 days after inoculation
How it was run: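 Insecticidal effect is judged by a predefined criterion from dead/alive counts four days after infesting air-dried lamina with third-instar larvae, kept on moistened filter paper at 25° C, 70% humidity.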

[4] = mortality judged by criterion of Test Example 1
[5] = common cutworm second-instar larvae, eight days after inoculation
[6] = rice leafroller third-instar larvae, four days after inoculation
[7] = judged by the mortality criterion of Test Example 1
[8] = second-instar larvae of common cutworm, eight days after inoculation
[9] = third-instar larvae of rice leafroller, four days after inoculation
[10] = cabbage leaf dip, second-instar larvae of common cutworm
[11] = rice lamina dip, third-instar larvae of rice leafroller

Structure (SMILES) | Insecticidal effect, Test Example 1 [1, 4] | Insecticidal effect, Test Example 2 [2, 5] | Insecticidal effect, Test Example 3 [3, 6] | Insecticidal effect, Test Example 1 [1, 7] | Insecticidal effect, Test Example 2 [2, 8] | Insecticidal effect, Test Example 3 [3, 9] | further results
Cc1cc(C(F)(C(F)(F)F)C(F)(F)F)ccc1NC(=O)c1cccc(Cl)c1C(=O)NC(C)(C)C [compound 1038] | A (100) | A (100) | A (100) |  |  |  | 
Cc1cc(I)ccc1NC(=O)c1cccc(Cl)c1C(=O)NC(C)C [compound 122] |  |  |  | A (100) | A (100) | A (100) | 
CCN(CC)C(=O)c1c(I)cccc1C(=O)Nc1ccc(C(F)(F)C(F)(F)F)cc1Cl [compound 1560] |  |  |  |  |  |  | Insecticidal effect (Test Example 1), judged from mortality [1]: A (100); Insecticidal effect (Test Example 2), judged from mortality [2, 10]: A (100); Insecticidal effect (Test Example 3), judged from mortality [3, 11]: A (100)
CC(C)NC(=O)c1c(C(=O)Nc2ccc3c(c2)OC(F)(F)O3)cccc1[N+](=O)[O-] [compound 1100] | A (100) | C (89-80) | A (100) |  |  |  | 
CC(C)NC(=O)c1c(Cl)cccc1C(=O)Nc1ccc(C(F)(C(F)(F)F)C(F)(F)F)cc1Cl [compound 126] |  |  |  | A (100) | A (100) | A (100) | 
CC(C)NC(=O)c1c(F)cccc1C(=O)Nc1ccc(C(F)(F)F)cc1Cl [compound 504] |  |  |  |  |  |  | Insecticidal effect on diamondback moth (Test Example 1), judged grade ([1]; mortality judged according to the criterion shown in Test Example 1): A (100); Insecticidal effect on common cutworm (Test Example 2), judged grade ([2]; cabbage leaf dip, second-instar larvae, eight days after inoculation): A (100); Insecticidal effect on rice leafroller (Test Example 3), judged grade ([3]; rice lamina dip, third-instar larvae, four days after inoculation): A (100)
CC(C)(C)NC(=O)c1c(I)cccc1C(=O)Nc1ccc(Cl)c2c1OC(F)(F)O2 [compound 1747] |  |  |  |  |  |  | Insecticidal effect (Test Example 1), judged from mortality [1]: A (100); Insecticidal effect (Test Example 2), judged from mortality [2, 10]: C (89-80); Insecticidal effect (Test Example 3), judged from mortality [3, 11]: A (100)
CC(C)NC(=O)c1c(Br)cccc1C(=O)Nc1ccc(C(F)(F)F)cc1 [compound 261] |  |  |  | A (100) | A (100) | D (79-50) | 
CC(C)NC(=O)c1c(I)cccc1C(=O)Nc1ccc(SC(F)(F)F)cc1 [compound 998] | A (100) | A (100) | A (100) |  |  |  | 
Cc1cc(OC(F)F)ccc1NC(=O)c1cccc(Br)c1C(=O)NC(C)C [compound 288] |  |  |  | A (100) | A (100) | A (100) | 
CC(C)NC(=O)c1c(I)cccc1C(=O)Nc1ccc(C(O)(C(F)(F)F)C(F)(F)F)cc1 [compound 1004] | A (100) | A (100) | A (100) |  |  |  | 
CC(C)(C)NC(=O)c1c(I)cccc1C(=O)Nc1ccc(C(F)(F)C(F)(F)F)cc1Cl [compound 1428] | A (100) | A (100) | A (100) |  |  |  | 
CC(C)NC(=O)c1c(Cl)cccc1C(=O)Nc1cccc([S+]([O-])C(F)(F)F)c1 (stereo not drawn) [compound 100] |  |  |  | A (100) | A (100) | A (100) | 
CCN(CC)C(=O)c1c(Cl)cccc1C(=O)Nc1ccc(C(F)(F)F)cc1 [compound 1545] |  |  |  |  |  |  | Insecticidal effect (Test Example 1), judged from mortality [1]: A (100); Insecticidal effect (Test Example 2), judged from mortality [2, 10]: D (79-50); Insecticidal effect (Test Example 3), judged from mortality [3, 11]: A (100)
Cc1cc(OC(F)(F)C(F)Cl)ccc1NC(=O)c1cccc(Cl)c1C(=O)NC(C)C (stereo not drawn) [compound 143] |  |  |  | A (100) | A (100) | A (100) | 
CC(C)NC(=O)c1ccccc1C(=O)Nc1ccc(Cl)cc1Cl [compound 42] |  |  |  | A (100) | D (79-50) | A (100) | 
